Experimental data from ChEMBL document CHEMBL1799930, “Novel nanomolar imidazo[4,5-b]pyridines as selective nitric oxide synthase (iNOS) inhibitors: SAR and structural insights” (Bioorg Med Chem Lett, 2011).
Active and inactive are the calls of the source. The rule behind the calls is not given here.

Key:
[1] = biological target: Nitric oxide synthase, inducible (Homo sapiens, UniProt P35228); assay: Inhibition of human iNOS assessed as inhibition of [3H]L-arginine to [3H]L-citrulline conversion by scintillation counting
Sequence of Nitric oxide synthase, inducible (P35228 whole entry): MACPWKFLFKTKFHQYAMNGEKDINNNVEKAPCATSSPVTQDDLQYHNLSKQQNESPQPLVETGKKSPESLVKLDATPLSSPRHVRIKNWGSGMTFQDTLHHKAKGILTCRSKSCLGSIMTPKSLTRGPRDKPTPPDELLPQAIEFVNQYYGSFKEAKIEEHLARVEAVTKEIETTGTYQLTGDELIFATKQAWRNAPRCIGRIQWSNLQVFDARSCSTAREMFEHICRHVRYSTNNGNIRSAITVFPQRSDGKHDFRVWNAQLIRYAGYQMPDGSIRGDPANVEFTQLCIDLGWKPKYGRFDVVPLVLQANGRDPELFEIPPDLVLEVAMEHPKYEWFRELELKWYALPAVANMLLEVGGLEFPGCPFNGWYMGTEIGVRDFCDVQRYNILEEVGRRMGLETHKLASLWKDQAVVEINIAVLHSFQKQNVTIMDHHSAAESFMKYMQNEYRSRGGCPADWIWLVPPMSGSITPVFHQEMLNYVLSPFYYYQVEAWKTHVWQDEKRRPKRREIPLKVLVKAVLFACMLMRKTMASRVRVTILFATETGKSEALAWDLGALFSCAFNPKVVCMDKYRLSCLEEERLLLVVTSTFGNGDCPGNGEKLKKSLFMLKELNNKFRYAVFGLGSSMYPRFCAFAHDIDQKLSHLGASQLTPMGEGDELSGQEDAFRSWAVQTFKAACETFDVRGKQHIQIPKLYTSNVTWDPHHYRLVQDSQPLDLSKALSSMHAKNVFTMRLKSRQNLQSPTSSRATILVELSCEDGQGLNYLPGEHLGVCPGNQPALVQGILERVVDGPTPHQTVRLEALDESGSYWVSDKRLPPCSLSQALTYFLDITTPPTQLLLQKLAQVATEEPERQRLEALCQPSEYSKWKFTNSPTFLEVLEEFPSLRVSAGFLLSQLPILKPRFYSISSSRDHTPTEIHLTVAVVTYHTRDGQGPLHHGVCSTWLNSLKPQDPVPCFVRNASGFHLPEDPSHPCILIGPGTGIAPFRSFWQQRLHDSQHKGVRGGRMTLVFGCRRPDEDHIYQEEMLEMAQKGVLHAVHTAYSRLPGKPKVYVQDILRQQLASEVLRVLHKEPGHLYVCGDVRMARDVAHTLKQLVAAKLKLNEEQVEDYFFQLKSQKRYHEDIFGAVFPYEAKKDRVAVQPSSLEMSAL

Nitric oxide synthase 3 = biological target: T1, Nitric oxide synthase 3 (Homo sapiens, UniProt P29474); assay: Inhibition of human eNOS assessed as inhibition of [3H]L-arginine to [3H]L-citrulline conversion by scintillation counting
T1 sequence (P29474 whole entry): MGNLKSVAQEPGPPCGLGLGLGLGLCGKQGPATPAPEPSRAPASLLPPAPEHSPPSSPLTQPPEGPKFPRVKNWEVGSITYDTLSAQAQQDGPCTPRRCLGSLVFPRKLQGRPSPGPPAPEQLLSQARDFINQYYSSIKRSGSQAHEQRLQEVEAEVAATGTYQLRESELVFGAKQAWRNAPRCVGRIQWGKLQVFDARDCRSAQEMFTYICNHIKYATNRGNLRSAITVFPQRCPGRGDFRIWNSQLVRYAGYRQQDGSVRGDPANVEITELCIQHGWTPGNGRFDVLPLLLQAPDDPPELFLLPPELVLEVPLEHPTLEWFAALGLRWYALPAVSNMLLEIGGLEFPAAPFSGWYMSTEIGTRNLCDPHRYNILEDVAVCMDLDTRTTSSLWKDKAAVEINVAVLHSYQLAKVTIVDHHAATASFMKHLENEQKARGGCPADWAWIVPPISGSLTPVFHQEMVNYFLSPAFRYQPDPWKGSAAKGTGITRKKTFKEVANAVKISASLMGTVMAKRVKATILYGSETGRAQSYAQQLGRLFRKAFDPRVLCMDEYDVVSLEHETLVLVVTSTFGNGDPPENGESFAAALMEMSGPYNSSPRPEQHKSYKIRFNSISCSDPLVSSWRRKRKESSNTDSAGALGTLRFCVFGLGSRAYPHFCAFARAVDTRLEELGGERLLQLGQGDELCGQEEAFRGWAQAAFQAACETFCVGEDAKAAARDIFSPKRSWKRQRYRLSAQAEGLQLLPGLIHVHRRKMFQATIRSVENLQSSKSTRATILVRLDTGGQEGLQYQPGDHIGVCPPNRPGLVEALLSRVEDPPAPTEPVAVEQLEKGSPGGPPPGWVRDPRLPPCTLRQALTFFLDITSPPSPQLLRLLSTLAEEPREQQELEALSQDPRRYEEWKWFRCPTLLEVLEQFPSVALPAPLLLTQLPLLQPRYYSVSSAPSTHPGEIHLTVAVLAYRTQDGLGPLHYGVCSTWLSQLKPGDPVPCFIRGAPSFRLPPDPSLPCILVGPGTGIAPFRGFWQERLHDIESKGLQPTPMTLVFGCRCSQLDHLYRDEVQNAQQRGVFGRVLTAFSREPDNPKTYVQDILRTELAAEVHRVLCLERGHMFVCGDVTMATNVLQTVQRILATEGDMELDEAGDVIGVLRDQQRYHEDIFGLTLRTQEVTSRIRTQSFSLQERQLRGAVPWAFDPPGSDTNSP

Nitric oxide synthase 1 = Nitric oxide synthase 1 (Homo sapiens, UniProt P29475); assay: Inhibition of human nNOS assessed as inhibition of [3H]L-arginine to [3H]L-citrulline conversion by scintillation counting
Sequence of Nitric oxide synthase 1 (P29475 whole entry): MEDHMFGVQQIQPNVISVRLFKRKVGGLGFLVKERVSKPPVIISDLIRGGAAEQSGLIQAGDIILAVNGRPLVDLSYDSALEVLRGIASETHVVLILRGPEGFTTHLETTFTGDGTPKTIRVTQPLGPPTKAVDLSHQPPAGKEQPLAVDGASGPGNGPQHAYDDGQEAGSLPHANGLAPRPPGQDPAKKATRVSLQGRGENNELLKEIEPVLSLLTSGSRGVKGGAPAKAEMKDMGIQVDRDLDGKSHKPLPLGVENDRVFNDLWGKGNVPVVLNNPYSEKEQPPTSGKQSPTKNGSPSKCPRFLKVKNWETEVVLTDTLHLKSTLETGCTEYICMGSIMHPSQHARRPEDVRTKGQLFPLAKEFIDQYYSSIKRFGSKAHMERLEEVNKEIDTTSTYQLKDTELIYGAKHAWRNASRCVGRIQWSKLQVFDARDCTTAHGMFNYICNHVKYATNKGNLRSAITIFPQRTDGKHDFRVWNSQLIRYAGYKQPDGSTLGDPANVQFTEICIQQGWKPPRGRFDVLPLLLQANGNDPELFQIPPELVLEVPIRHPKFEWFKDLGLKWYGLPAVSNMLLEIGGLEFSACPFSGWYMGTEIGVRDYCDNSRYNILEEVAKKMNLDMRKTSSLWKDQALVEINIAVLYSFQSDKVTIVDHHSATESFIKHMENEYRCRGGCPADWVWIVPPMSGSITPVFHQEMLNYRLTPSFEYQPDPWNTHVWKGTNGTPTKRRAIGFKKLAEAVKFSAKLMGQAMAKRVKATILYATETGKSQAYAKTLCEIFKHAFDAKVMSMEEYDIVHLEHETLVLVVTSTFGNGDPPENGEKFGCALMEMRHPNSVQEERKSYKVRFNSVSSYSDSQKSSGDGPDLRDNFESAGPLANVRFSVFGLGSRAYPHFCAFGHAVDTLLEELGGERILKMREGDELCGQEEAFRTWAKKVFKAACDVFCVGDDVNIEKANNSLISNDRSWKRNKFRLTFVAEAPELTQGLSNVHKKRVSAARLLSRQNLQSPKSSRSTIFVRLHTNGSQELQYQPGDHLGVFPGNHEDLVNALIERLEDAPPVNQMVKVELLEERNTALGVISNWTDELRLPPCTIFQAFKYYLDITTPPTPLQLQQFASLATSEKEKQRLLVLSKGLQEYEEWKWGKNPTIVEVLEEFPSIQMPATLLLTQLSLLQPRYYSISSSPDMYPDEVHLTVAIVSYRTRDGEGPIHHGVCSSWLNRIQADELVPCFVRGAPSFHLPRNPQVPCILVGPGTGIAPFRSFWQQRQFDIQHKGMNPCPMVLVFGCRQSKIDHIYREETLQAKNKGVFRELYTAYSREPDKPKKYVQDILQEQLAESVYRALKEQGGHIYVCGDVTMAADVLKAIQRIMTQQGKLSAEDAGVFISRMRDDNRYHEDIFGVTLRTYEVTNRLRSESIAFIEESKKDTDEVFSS

[2] = biological target: T2, Nitric oxide synthase, inducible (Mus musculus) (UniProt P29477); assay: Binding affinity to mouse iNOSox L-arginine binding site by X-ray crystallography
T2 sequence (whole entry): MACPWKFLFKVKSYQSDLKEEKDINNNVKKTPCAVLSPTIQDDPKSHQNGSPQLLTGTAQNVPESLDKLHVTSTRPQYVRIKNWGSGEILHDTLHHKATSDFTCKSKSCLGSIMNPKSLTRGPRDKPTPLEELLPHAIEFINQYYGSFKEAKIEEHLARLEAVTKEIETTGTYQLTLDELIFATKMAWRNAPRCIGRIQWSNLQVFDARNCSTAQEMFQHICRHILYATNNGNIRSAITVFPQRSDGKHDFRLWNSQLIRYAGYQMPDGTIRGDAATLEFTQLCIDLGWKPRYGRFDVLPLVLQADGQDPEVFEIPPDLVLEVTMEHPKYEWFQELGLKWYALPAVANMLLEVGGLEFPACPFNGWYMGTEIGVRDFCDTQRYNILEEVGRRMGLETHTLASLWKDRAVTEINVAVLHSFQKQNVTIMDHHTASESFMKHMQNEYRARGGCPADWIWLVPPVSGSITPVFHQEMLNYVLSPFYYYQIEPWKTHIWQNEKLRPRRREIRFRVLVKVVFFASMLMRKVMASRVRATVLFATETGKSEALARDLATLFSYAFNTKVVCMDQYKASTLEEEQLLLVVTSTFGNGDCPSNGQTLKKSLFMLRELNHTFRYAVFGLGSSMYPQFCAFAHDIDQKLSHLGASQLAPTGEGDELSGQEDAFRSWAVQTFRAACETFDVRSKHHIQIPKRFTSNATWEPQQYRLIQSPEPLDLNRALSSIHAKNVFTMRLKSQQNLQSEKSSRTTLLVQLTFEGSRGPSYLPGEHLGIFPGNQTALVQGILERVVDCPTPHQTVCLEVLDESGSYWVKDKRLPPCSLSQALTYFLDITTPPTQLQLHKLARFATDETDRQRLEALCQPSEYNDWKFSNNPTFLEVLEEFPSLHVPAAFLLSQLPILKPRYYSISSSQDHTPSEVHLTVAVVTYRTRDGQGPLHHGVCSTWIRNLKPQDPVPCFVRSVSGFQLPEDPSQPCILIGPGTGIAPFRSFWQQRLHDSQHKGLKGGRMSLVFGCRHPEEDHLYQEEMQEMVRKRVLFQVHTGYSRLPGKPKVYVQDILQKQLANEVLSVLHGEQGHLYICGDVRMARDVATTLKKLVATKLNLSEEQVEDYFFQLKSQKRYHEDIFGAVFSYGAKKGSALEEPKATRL

[3] = Inhibition of CYP; format: ADME
[4] = Cmax in rat; format: ADME, organism-based; details: in vivo
[5] = Absolute oral bioavailability in rat; format: ADME, organism-based; details: in vivo
[6] = Clearance in rat; format: ADME, organism-based; details: in vivo
Cytochrome P450 2C9 = Cytochrome P450 2C9 (Homo sapiens, UniProt P11712); assay: Inhibition of CYP2C9; format: ADME
Sequence of Cytochrome P450 2C9 (P11712 whole entry): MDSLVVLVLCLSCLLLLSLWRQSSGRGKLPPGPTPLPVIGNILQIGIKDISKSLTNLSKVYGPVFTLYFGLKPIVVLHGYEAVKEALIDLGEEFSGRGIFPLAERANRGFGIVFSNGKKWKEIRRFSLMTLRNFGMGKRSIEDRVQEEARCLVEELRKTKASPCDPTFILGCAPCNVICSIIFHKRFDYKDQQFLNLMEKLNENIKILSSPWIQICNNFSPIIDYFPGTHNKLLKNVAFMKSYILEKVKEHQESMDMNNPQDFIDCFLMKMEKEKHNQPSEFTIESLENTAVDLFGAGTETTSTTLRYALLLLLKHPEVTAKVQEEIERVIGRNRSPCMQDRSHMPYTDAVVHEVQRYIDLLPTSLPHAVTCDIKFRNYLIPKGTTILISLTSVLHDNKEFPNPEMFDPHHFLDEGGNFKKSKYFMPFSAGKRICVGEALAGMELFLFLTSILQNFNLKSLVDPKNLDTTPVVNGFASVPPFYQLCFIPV

Row | IC50 [1] [µM] | IC50 (Nitric oxide synthase 3) [µM] | IC50 (Nitric oxide synthase 1) [µM] | SMILES | further results
1 | 0.724 | 66.1 | 13.8 | COc1ccnc(CCc2nc3c(OCCc4ccccc4)ccnc3[nH]2)c1 | –
2 | 4.68 | > 100 | – | CC(=N)NCCCC[C@H](N)C(=O)O [L-NIL] | –
3 | 0.513 | 204 | 123 | COCCOc1ccnc2[nH]c(CCc3cc(OC)ccn3)nc12 | –
4 | 0.055 | 87.1 | 1.91 | CCCCc1cnc2[nH]c(CCc3cc(OC)ccn3)nc2c1 | –
5 | 0.0708 | > 100 | 6.61 | COc1ccnc(NC2CCN(C(=O)c3ccc(C#N)nc3)CC2)c1 | –
6 | 0.145 | 45.7 | 18.6 | COc1ccnc(CCc2nc3c(C)ccnc3[nH]2)c1 | –
7 | > 100 | > 100 | > 100 | CC(=N)NCCCC[C@H](N)C(=O)Nc1nnn[nH]1 | –
8 | – | 18.2 | 1.2 | COc1ccnc(CCc2nc3cc(-c4ccccc4)cnc3[nH]2)c1 | –

The next lines start with the compound.

Row | SMILES | IC50 [1] [µM] | IC50 (Nitric oxide synthase 3) [µM] | IC50 (Nitric oxide synthase 1) [µM] | further results
9 | COc1ccnc(CSC)c1 | 0.155 | 1.07 | 0.447 | –
10 | COc1ccnc(CCc2nc3cc(Br)cnc3[nH]2)c1 | 0.186 | 87.1 | 8.32 | –
11 | COc1ccnc(CSc2nc3ccncc3[nH]2)c1 | 49 | > 100 | > 100 | –
12 | COc1ccnc(CCc2nc3c(OC)ccnc3[nH]2)c1 | 0.776 | 204 | 58.9 | –
13 | COc1ccnc(CCc2nc3cccnc3[nH]2)c1 | – | – | – | Activity [2]: Active; pIC50 [3]: < 4
14 | COc1ccnc(CSC)c1OC | > 100 | > 100 | > 100 | –
15 | COc1ccnc(CSc2nc3ccccc3[nH]2)c1 | 10.7 | 26.3 | 26.9 | –
16 | COc1cnc(CSC)cc1OC | > 100 | > 100 | > 100 | –
17 | COc1ccnc(CCc2nc3c(C)cc(C)nc3[nH]2)c1 | 2.29 | > 100 | 12.6 | –
18 | COc1ccnc(CCc2nc3ccc(OC)nc3[nH]2)c1 | 0.38 | 100 | 26.3 | –
19 | C[C@H]1CC(=N)N[C@@H]2[C@H](Cl)[C@@H]21 | – | – | – | Ki [1]: 0.00186 µM; Ki (Nitric oxide synthase 3): 0.0186 µM
20 | COc1ccnc(CSc2nc3cccnc3[nH]2)c1 | 0.115 | 53.7 | 3.39 | –
21 | COc1ccnc(CCc2nc3ncccc3[nH]2)c1 | – | 112 | 13.8 | Cmax [4]: 2240 ng/mL; bioavailability [5]: 48%; clearance [6]: 36.8 mL/min/kg; IC50 (Cytochrome P450 2C9): 3.16 µM
